From PMC7351026, “Serum Half-Lives for Short- and Long-Chain Perfluoroalkyl Acids after Ceasing Exposure from Drinking Water Contaminated by Firefighting Foam” (Environmental Health Perspectives, 2020)

What was measured:
[1] = PFAS levels in urine samples of airport employees, specific-gravity adjusted (LC/MS/MS); type: in vivo, human
Experimental: Only one employee provided a single urine sample. […] All employees provided written informed consent.
The samples were thawed 1–2 h, then mixed by vortex shaker and manual turning. […] For the urine samples, 50μL urine was mixed with 25μL of methanol and 25μL of a 50% acetonitrile solution containing isotopically labeled internal standards (see Table S1). Then samples were shaken vigorously for 30 min and centrifuged at 3,000×g for 10 min at room temperature.
Aliquots of 20μL of the sample were analyzed using LC/MS/MS. […] The analysis was performed in negative ion mode. The ion source temperature was at 350°C.
(§1) Urinary PFAS concentrations were specific-gravity adjusted. The ratio of urine and serum concentration for each PFAS (urine/serum ratio) at each sampling was calculated based on PFAS concentrations in paired serum and urine samples from 17 employees. Then the personal average urine/serum ratio was calculated using the mean value of repeated samplings for each employee.

[2] = Population average serum elimination rate and half-life (linear mixed model, one compartment, first-order); conditions: for Constant elimination rate (95% CI) / Half-life (95% CI): population average
Procedure, shortened: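 Log-transformed serum PFAS fitted with a linear mixed model (random intercept only; age and sex as covariates), assuming one-compartment first-order elimination. Time counted in days from clean-water supply to first sampling. k is the negative average slope; half-life = ln2/k; sensitivity run after subtracting reference-population median background.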

[3] = Individual serum elimination rate and half-life (linear regression per employee); conditions: individual estimate;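 for HL (half-life): half-life in years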
Experimental: Serum PFAS concentrations were log-transformed. Time was calculated as the elapsed days between supply of clean bottled water and […] blood sampling. We assumed one compartment, first-order elimination kinetics. In this kinetic model, the body is considered as one homogeneous volume in which mixing is instantaneous and from which PFAS could be absorbed, transferred, and eliminated according to the rate of elimination that is proportional to the concentration of PFAS in the body. Two methods were used to estimate serum elimination rate constant (k) and half-life for each PFAS:
Method 2: For estimation of individual k, linear regression was used to derive the slope ( β ) of the logarithm of serum concentrations vs. time for each employee. The negative value of the slope ( −β ) for each individual was equivalent to the individual k, and individual serum elimination half-life was calculated as ln2/k for each PFAS. If β was positive (i.e., PFAS concentrations tended to increase over the five samplings), the half-life was not calculated.

Serum/water ratio = type: in vivo, human; conditions: median serum level of first samples (26 employees) divided by airport drinking-water level
Experimental: The ratio of serum and water concentration for each PFAS (serum/water ratio) was calculated based on median serum level in the first serum sample obtained from all 26 airport employees divided by the drinking-water concentration. This ratio is an indicator of PFAS accumulation in body.

[4] = Urine/serum ratio in paired samples; type: in vivo, human; conditions: mean of four paired samplings per subject, 17 airport employees
Experimental: as §1

[5] = general Swedish population (Ronneby, 106 Swedes) with high exposure through drinking water, 2 y follow-up from 6 months after clean water; ref Li et al. 2018; cited from earlier work
[6] = 2nd sampling (October 2018), count 17
[7] = 3rd sampling (November, 2018), count 16
[8] = 4th sampling (December 2018), count 14
[9] = 5th sampling (January 2019), count 12
[10] = model with original serum levels, age and sex as covariates
[11] = model with serum levels after subtraction of background exposure (sensitivity analysis)

SMILES: O=S(=O)(O)C(F)(F)C(F)(F)C(F)(F)C(F)(F)C(F)(F)C(F)(F)C(F)(F)C(F)(F)F [L-PFOS, linear perfluorooctane sulfonic acid]
- Specific gravity adjusted urinary level, 25 percentile [1, 6]: < LOD
- Specific gravity adjusted urinary level, 75 percentile [1, 6]: 0.01 ng/mL
- Specific gravity adjusted urinary level, Max [1, 6]: 0.08 ng/mL
- Specific gravity adjusted urinary level, Median [1, 6]: < LOD
- Specific gravity adjusted urinary level, Min [1, 6]: < LOD
- Specific gravity adjusted urinary level, 25 percentile [1, 7]: < LOD
- Specific gravity adjusted urinary level, 75 percentile [1, 7]: 0.02 ng/mL
- Specific gravity adjusted urinary level, Max [1, 7]: 0.03 ng/mL
- Specific gravity adjusted urinary level, Median [1, 7]: 0.01 ng/mL
- Specific gravity adjusted urinary level, Min [1, 7]: < LOD
- Specific gravity adjusted urinary level, 25 percentile [1, 8]: < LOD
- Specific gravity adjusted urinary level, 75 percentile [1, 8]: 0.02 ng/mL
- Specific gravity adjusted urinary level, Max [1, 8]: 0.05 ng/mL
- Specific gravity adjusted urinary level, Median [1, 8]: < LOD
- Specific gravity adjusted urinary level, Min [1, 8]: < LOD
- Specific gravity adjusted urinary level, 25 percentile [1, 9]: < LOD
- Specific gravity adjusted urinary level, 75 percentile [1, 9]: 0.01 ng/mL
- Specific gravity adjusted urinary level, Max [1, 9]: 0.04 ng/mL
- Specific gravity adjusted urinary level, Median [1, 9]: < LOD
- Specific gravity adjusted urinary level, Min [1, 9]: < LOD
- Constant elimination rate (95% CI) [2, 10]: 0.24 (0.07, 0.4) yearly
- Half-life (95% CI) [2, 10]: 2.91 (1.71, 9.63) year
- Constant elimination rate (95% CI) [2, 11]: 0.41 (0.11, 0.71) yearly
- Half-life (95% CI) [2, 11]: 1.69 (0.98, 6.04) year
- Reduction of half-life estimation after subtraction of background levels ([2]; sensitivity analysis vs model with original serum levels): 42%
- Elimination rate ([3]; subject 1, 5 samples): −0.2 yearly
- Elimination rate ([3]; subject 2, 5 samples): 0.4 yearly
- HL (half-life) ([3]; subject 2, 5 samples): 1.7 year
- Elimination rate ([3]; subject 3, 5 samples): 0.5 yearly
- HL (half-life) ([3]; subject 3, 5 samples): 1.3 year
- Elimination rate ([3]; subject 4, 5 samples): −0.3 yearly
- Elimination rate ([3]; subject 5, 5 samples): 0.6 yearly
- HL (half-life) ([3]; subject 5, 5 samples): 1.2 year
- Elimination rate ([3]; subject 6, 4 samples): 0.04 yearly
- HL (half-life) ([3]; subject 6, 4 samples): 17 year
- Elimination rate ([3]; subject 7, 5 samples): 0.006 yearly
- Elimination rate ([3]; subject 8, 5 samples): −0.4 yearly
- Elimination rate ([3]; subject 9, 5 samples): 0.4 yearly
- HL (half-life) ([3]; subject 9, 5 samples): 1.8 year
- Elimination rate ([3]; subject 10, 5 samples): −0.2 yearly
- Elimination rate ([3]; subject 11, 5 samples): 0.1 yearly
- HL (half-life) ([3]; subject 11, 5 samples): 4.7 year
- Elimination rate ([3]; subject 12, 5 samples): 0.8 yearly
- HL (half-life) ([3]; subject 12, 5 samples): 0.9 year
- Elimination rate ([3]; subject 13, 5 samples): 0.2 yearly
- HL (half-life) ([3]; subject 13, 5 samples): 3.7 year
- Elimination rate ([3]; subject 14, 4 samples): 0.3 yearly
- HL (half-life) ([3]; subject 14, 4 samples): 2.0 year
- Elimination rate ([3]; subject 15, 5 samples): 0.5 yearly
- HL (half-life) ([3]; subject 15, 5 samples): 1.3 year
- Elimination rate ([3]; subject 16, 5 samples): 0.6 yearly
- HL (half-life) ([3]; subject 16, 5 samples): 1.2 year
- Elimination rate ([3]; subject 17, 5 samples): 0.3 yearly
- HL (half-life) ([3]; subject 17, 5 samples): 2.1 year
- Serum/water ratio (Serum/water ratio): 153
- Personal average urine/serum ratio, median (range) [4]: 0.00092 (0.000035–0.0056)
- Average half-life [5]: 3.4 y
